# Reference: US9485972B2, “Truncated tau proteins” (Axon Neuroscience SE, priority 2002, dated 2016)
# pIC50: −log10 of the molar value.
# Columns and labels:
# [1] = test system: purified porcine brain tubulin; assay: Microtubule assembly assay (MAA) with tau type IA and type IB; type: biochemical; conditions: tau 0.1 mg/ml, tubulin 1 mg/ml, 1 mM GTP, 37° C., 20 min
# Procedure: The physiological function of healthy tau consists in stabilizing microtubules (MTs). This function can be measured by a microtubule assembly assay (MAA). In this examples, the MAA reactions were carried out using three types of tau molecules: normal healthy human tau, recombinant forms of tau type IA (SEQ ID NO: 1) and tau type IB (SEQ ID NO: 4). Normal human tau, tau type IA and type IB were assayed individually in separate reactions. Single preparations of tau at 0.1 mg/ml were mixed with purified porcine brain tubulin at a final concentration of 1 mg/ml and 1 mM GTP, all materials in polymerisation buffer (100 mM PIPES, pH 6.9, 1 mM MgSO4, 2 mM EGTA). Tau was added last to initiate the promotion of MT assembly. After gentle and rapid mixing, the samples were pipetted into quartz microcuvettes and equilibrated at 37° C. in a thermostatically controlled spectrophotometer (Beckman Coulter DU640). The turbidity was continuously monitored at 340 nm in 10 s intervals for a period of 20 min.
# Human tubulin = assay: Inhibition of microtubule assembly by tau type IA and IB (tubulin preincubated, then normal human tau); type: biochemical; conditions: tubulin preincubated 1 hr at 37° C. with 0.2 mg/ml type IA or IB; normal human tau 0.1 mg/ml; 340 nm, 5 min
# Procedure: Both tau type IA and IB molecules lack functional activity when applied in a the MT assembly assay (MAA). […] For inhibition of microtubule assembly, recombinant forms of tau type IA (SEQ ID NO:1) and type IB (SEQ ID NO:4) were used. The assembly-inhibition reactions were carried out separately using type IA and type IB proteins. Human tubulin (2 mg/ml) was mixed with either type IA molecules (0.2 mg/ml) or type IB molecules (0.2 mg/ml). The mixtures were incubated 1 hr at 37° C. with gently shaking. To the mixtures kept on ice normal human tau (0.1 mg/ml) and GTP (final concentration of tubulin in the mixture is 1 mg/ml and GTP 1 mM) were added in polymerization buffer (100 mM PIPES, pH 6.9, 1 mM MgSO4, 2 mM EGTA). After gentle and rapid mixing, the samples were pipetted into quartz microcuvettes and equilibrated at 37° C. in a thermostatically controlled spectrophotometer (Beckman Coulter DU640). The turbidity changes were measured at 340 nm in 10 sec intervals over a period of 5 min.
# tau monoclonal antibody = assay: Competitive ELISA, affinity of monoclonal antibody to tau type IA and deletion mutants; type: binding; conditions: read-out: apparent affinity (antigen concentration needed for 50% competition with prototype tau type IA)
# Procedure: FIG. 5: Affinity of monoclonal antibody to diseased tau type IA protein and its deletion mutants. Apparent affinity of monoclonal antibody to diseased tau type IA protein and its deletion mutants. In the first column are listed: the ‘prototype’ tau type IA protein (SEQ ID NO 1) and respective deletion mutants. In the middle column are indicated epitopes of the present invention. Apparent affinities stated in the last column were measured by competitive ELISA, and shown as the concentrations of corresponding antigen needed for 50% competition with the prototype tau type IA protein.
# The significance of the ‘conformational region’ in tau type IA (segment A) or its parts was determined by sequential deletion either of whole conformation region (segment A) or its individual parts called epitopes and designated A1-A6. Since the conformation of type IA molecules strongly correlates with their function, the contribution of each epitope (A1-A6) to the overall conformation of the ‘segment A’ was measured on the basis of its reactivity when using a tau monoclonal antibody (FIG. 5).
# tubulin [2] = assay: Inhibitory effect of AD-brain derived and recombinant tau type IA on normal healthy tau in microtubule assembly assay; type: biochemical; conditions: 0.2 mg/ml type IA or IB, healthy tau 0.1 mg/ml, tubulin 1 mg/ml, preincubation 1 hr at 37° C., 340 nm, 5 min
# Text: AD-brain extracts as well as recombinant molecules of tau type IA are capable to inhibit microtubule assembly promotion when using natural healthy tau isoforms. For these experiments healthy human tau was isolated from brains of age matched controls and tau type IA was isolated from brains of AD patients (see Example 6, FIG. 6, fraction #19). Recombinant tau type IA (SEQ ID NO: 1) and type IB (SEQ ID NO:4, negative control) were produced and purified as shown in Example 6. In these experiments, brain-derived healthy tau isoforms (0.1 mg/ml), AD-brain derived or recombinant type IA tau or type IB (0.2 mg/ml) were mixed with tubulin. Each combination was assayed separately. The test mixtures were incubated 1 hr at 37° C. in a water bath with gently shaking. To the mixture kept on ice was added GTP and/or normal tau (final concentration of tubulin is 1 mg/ml and GTP 1 mM) all reagencies in polymerisation buffer (100 mM PIPES, pH 6.9, 1 mM MgSO4, 2 mM EGTA). After gentle and rapid mixing, the samples were pipetted into quartz microcuvettes and equilibrated at 37° C. in a thermostatically controlled spectrophotometer (Beckman Coulter DU640). The turbidity changes were measured at 340 nm in 10 s intervals for a period of 5 min. […] Curve 1 (FIG. 12) represents microtubule assembly promoted by normal tau.
# tubulin [3] = assay: Microtubule assembly with tau type IIA and IIB; type: biochemical; conditions: tau 0.1 mg/ml, tubulin 1 mg/ml, GTP 1 mM, 37° C., 340 nm, 5 min
# Procedure: The microtubule assembly reactions were carried out using three types of molecules: natural healthy human tau isoforms, Alz. tau type IIA (SEQ ID NO: 12) and tau type JIB (SEQ ID NO: 19). Three separate reactions were performed, each with single preparation of respective tau (healthy tau, recombinant tau type IIA or type IIB). Individual tau preparations at 0.1 mg/ml were mixed with tubulin and GTP (final concentration of tubulin is 1 mg/ml and GTP 1 mM), all reagencies in polymerisation buffer (100 mM PIPES, pH 6.9, 1 mM MgSO4, 2 mM EGTA). After gentle and rapid mixing, the samples were pipetted into quartz microcuvettes and equilibrated at 37° C. in a thermostatically controlled spectrophotometer (Beckman Coulter DU640). The turbidity changes were measured at 340 nm in 10 s intervals for a period of 5 min.
# [4] = test system: neuroblastoma cells expressing tau type IIA; assay: Oxidative stress (SIN-1) vulnerability, MTT reduction assay; type: cell-based, human; conditions: cells expressing the tau protein vs non-expressing cells, SIN-1 0-3.3 mM, 24 hours
# Text: In the present example, the oxidative decomposition of 3-morpholinosydnonimine (SIN-1) was used which generates superoxide anions and nitric oxide, which react and thereby form peroxynitrite. This very reactive radical can further oxidize mainly cellular membrane systems. Persons skilled in art will be able to also apply another sources of oxidative stress to neuroblastoma cells in culture and will be able to obtain the same effect here described by the use on SIN-1.
# The effect of vulnerability was tested as follows: • 1. SIN-1 was applied at various concentrations (0-3.32 mM) to human neuronal cell lines expressing tau type IIA protein SEQ ID NO 15 and SEQ ID NO 11, respectively. • 2. […] The EC50 values were compared for neuroblastoma cell lines in the presence or absence of diseased tau type IIA protein expression and the statistical significance of EC50 value differences was assessed by t-test. […]
# After five day, SIN-1 was added in concentrations ranging from 0 to 3.3 mM and the plates were incubated for 24 hours. […] The absorbance at 540 nm with background correction at 690 nm was measured on ELISA reader and the background-subtracted values were used for EC50 calculation, as it is well known in the art. […]
# microtubules = assay: Electron microscopy of microtubules formed with tau; type: biochemical
# Text: However, Alzheimer tau type II produces pathological microtubules with typical pattern (see FIG. 28C).
substance,measurement,setting,value
"SEQ ID NO: 1: type IA N- and C-terminally double truncated tau, residues 239-333 of four repeat tau43",microtubule assembly promotion (turbidity at 340 nm),[1],lacked any MT assembly promotion
same,inhibition of microtubule assembly promoted by normal human tau,Human tubulin,abolished microtubule assembly
same,pIC50,tau monoclonal antibody,8.00
same,inhibition of the capacity of normal tau to promote microtubule assembly,tubulin [2],inhibit the capacity of normal tau to promote microtubule assembly
"SEQ ID NO: 4: type IB double truncated tau, 239-326, R4",microtubule assembly promotion (turbidity at 340 nm),[1],lacked any MT assembly promotion
same,inhibition of microtubule assembly promoted by normal human tau,Human tubulin,does not inhibit the microtubule assembly capacity of normal tau
same,inhibition of the capacity of normal tau to promote microtubule assembly,tubulin [2],not able to inhibit
"SEQ ID NO: 12: type IIA double truncated tau, 93-333, R4",promotion of microtubule assembly compared to healthy tau,tubulin [3],extremely high (threefold) promotion
same,decrease of resistance of neuroblastoma cells to oxidative stress (EC50 of SIN-1),[4],50%
"SEQ ID NO: 18: type IIA double truncated tau, 69-332, R3",decrease of resistance of neuroblastoma cells to oxidative stress (EC50 of SIN-1),[4],50%
"SEQ ID NO: 19: type IIB double truncated tau, 6-378, R4",promotion of microtubule assembly compared to healthy tau,tubulin [3],promote microtubule assembly only to the level seen with healthy tau
normal healthy tau: tau protein derived from healthy brains [reference compound],microtubule assembly promotion (turbidity at 340 nm),[1],microtubule assembly promotion capacity
"tau 43: shortest four repeat tau isoform, 383 amino acids, missing exons 2 and 3",type of microtubules formed (electron microscopy),microtubules,forms typical microtubules
